Reference: PubChem BioAssay (NCI)
“And” between values parts separate entries of the source, which are not always exact repeats. Equal entries are not always repeated.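 48-hour exposure; five concentrations; linearly interpolated endpoints. Abbreviation: GI50, concentration required for 50% inhibition of growth. The concentration for full growth arrest is given as TGI.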

Assays:
Assay in all cases: NCI tumour cell line growth inhibition, 48 h
[1] = system: SNB-75 CNS
[2] = system: HOP-62 NSCLC
[3] = system: MDA-MB-435
[4] = system: KM12 colon
[5] = system: EKVX NSCLC
[6] = system: SR leukemia
[7] = system: COLO 205 colon
[8] = system: SW-620 colon
[9] = system: MOLT-4 leukemia
[10] = system: OVCAR-4 ovarian
[11] = system: K-562 leukemia
[12] = system: OVCAR-5 ovarian
[13] = system: PC-3 prostate
[14] = system: A549 NSCLC
[15] = system: HOP-92 NSCLC
[16] = system: HL-60(TB) leukemia
[17] = system: HS 578T breast
[18] = system: OVCAR-3 ovarian
[19] = system: MALME-3M melanoma
[20] = system: BT-549 breast
[21] = system: SF-268 CNS
[22] = system: A498 renal
[23] = system: HT29 colon
[24] = system: SK-OV-3 ovarian
[25] = system: SF-539 CNS
[26] = system: HCT-116 colon
[27] = system: ACHN renal
[28] = system: CAKI-1 renal
[29] = system: NCI-H460 lung
[30] = system: RPMI-8226 leukemia
[31] = system: IGROV1 ovarian
[32] = system: CCRF-CEM leukemia
[33] = system: MDA-MB-231 breast
[34] = system: UACC-257 melanoma
[35] = system: DU-145 prostate
[36] = system: SN12C renal
[37] = system: OVCAR-8 ovarian
[38] = system: NCI-H23 lung
[39] = system: U251 CNS
[40] = system: HCT-15 colon
[41] = system: MCF7 breast
[42] = system: LOX IMVI melanoma
[43] = system: HCC-2998 colon
[44] = system: SF-295 CNS
[45] = system: SK-MEL-28 melanoma
[46] = system: SK-MEL-5 melanoma
[47] = system: T-47D breast
[48] = system: M14 melanoma
[49] = system: NCI-H226 lung
[50] = system: NCI-H522 lung
[51] = system: UACC-62 melanoma
[52] = system: 786-0 renal
[53] = system: UO-31 renal
[54] = system: SK-MEL-2 melanoma
[55] = system: NCI/ADR-RES ovarian
[56] = system: TK-10 renal
[57] = system: RXF 393 renal
[58] = system: SNB-19 CNS

For `CC(C)C[C@@H](NC(=O)[C@@H](Cc1ccccc1)NC(=O)c1cnccn1)B1Oc2ccc(C[C@H](NC(=O)[C@H](Cc3ccc4c(c3)OB([C@@H](CC(C)C)NC(=O)[C@@H](Cc3ccccc3)NC(=O)c3cnccn3)O4)NC(=O)[C@@H](N)CC3CCC4OB([C@@H](CC(C)C)NC(=O)[C@@H](CC5CCCCC5)NC(=O)C5CNCCN5)OC4C3)C(=O)NCCCC[C@@H]3NC(=O)[C@@H](Cc4ccccc4)NC(=O)[C@H](CC(=O)O)NC(=O)CNC(=O)[C@H](CCCNC(=N)N)NC3=O)cc2O1` (stereo not given in full), the GI50 [1] was 3.92 nM, the TGI [1] was 24.8 nM and the GI50 [2] was 7.45 nM and 6.55 nM. The TGI [2] was 46.3 nM and 17.7 nM, the GI50 [3] was 2.06 nM and < 2.5 nM and the TGI [3] was 4.52 nM and < 2.5 nM. For the same molecule, the GI50 [4] was 3.94 nM and 2.95 nM, the TGI [4] was 15.2 nM and 8.16 nM and the GI50 [5] was 10.6 nM and 7.75 nM. The TGI [5] was 527 nM and 304 nM, the GI50 [6] was 4.1 nM and the TGI [6] was 244 nM. The GI50 [7] was 5.51 nM and 5.55 nM, the TGI [7] was 293 nM and 86.4 nM and the GI50 [8] was 4.26 nM and 2.5 nM. For the same molecule, the TGI [8] was 115 nM and 261 nM, the GI50 [9] was 3.56 nM and 2.5 nM and the TGI [9] was greater than 25000 nM. The GI50 [10] was 5.05 nM and 2.5 nM, the TGI [10] was 181 nM and 548 nM and the GI50 [11] was 0.713 nM and 2.5 nM. For the same molecule, the TGI [11] was greater than 25000 nM, the GI50 [12] was 7.84 nM and 3.82 nM and the TGI [12] was 132 nM and 360 nM. For the same molecule, the GI50 [13] was 13.5 nM and 6.32 nM, the TGI [13] was 186 nM and 60.4 nM and the GI50 [14] was 7.23 nM and 8.38 nM. For the same molecule, the TGI [14] was 321 nM, the GI50 [15] was 3.69 nM and 2.5 nM and the TGI [15] was 26.7 nM and 9.53 nM. The GI50 [16] was 4.42 nM, the TGI [16] was 853 nM and the GI50 [17] was 4.19 nM and 2.5 nM. For the same molecule, the TGI [17] was greater than 25000 nM, the GI50 [18] was 2.53 nM and 2.5 nM and the TGI [18] was 6.73 nM and 3.27 nM. The GI50 [19] was 3.23 nM and 2.5 nM, the TGI [19] was 105 nM and 20.6 nM and the GI50 [20] was 2.58 nM and 2.5 nM. The TGI [20] was 8.12 nM and 3.01 nM, the GI50 [21] was 4.1 nM and 2.8 nM and the TGI [21] was 27.9 nM and 13.6 nM. For the same molecule, the GI50 [22] was 3.36 nM and 2.5 nM, the TGI [22] was 10.7 nM and 5.35 nM and the GI50 [23] was 3.73 nM and 2.5 nM. The GI50 [24] was 30.9 nM and 7.54 nM, the TGI [24] was 694 nM and the GI50 [25] was 2.51 nM and < 2.5 nM. For the same molecule, the TGI [25] was 7.22 nM and < 2.5 nM, the GI50 [26] was 2.73 nM and 2.5 nM and the TGI [26] was 16.4 nM and 2.9 nM. The GI50 [27] was 3.95 nM and 2.5 nM, the TGI [27] was 257 nM and 283 nM and the GI50 [28] was 3.55 nM and 7.13 nM. For the same molecule, the TGI [28] was 22.2 nM and 38.3 nM, the GI50 [29] was 25.3 nM and 7.96 nM and the TGI [29] was 115 nM and 32.2 nM. The GI50 [30] was 4.32 nM and 2.5 nM, the TGI [30] was 243 nM and 109 nM and the GI50 [31] was 21.7 nM and 2.5 nM. For the same molecule, the TGI [31] was 250 nM and 917 nM, the GI50 [32] was 3.82 nM and 2.5 nM and the TGI [32] was greater than 25000 nM. For the same molecule, the GI50 [33] was 7.73 nM and 2.5 nM, the TGI [33] was 56 nM and 20.5 nM and the GI50 [34] was 4.33 nM and 3.35 nM. For the same molecule, the TGI [34] was 49.6 nM and 15.6 nM, the GI50 [35] was 5.74 nM and 2.5 nM and the TGI [35] was 2980 nM. The GI50 [36] was 7.93 nM and 4.85 nM, the TGI [36] was 80.4 nM and 31.9 nM and the GI50 [37] was 22 nM and 8.17 nM. For the same molecule, the GI50 [38] was 5.68 nM and 2.5 nM, the TGI [38] was 41.2 nM and 10.8 nM and the GI50 [39] was 11.7 nM and 4.76 nM. For the same molecule, the TGI [39] was 149 nM and 21 nM, the GI50 [40] was 4.85 nM and 3.49 nM and the TGI [40] was 41 nM and 40.9 nM. The GI50 [41] was 3.78 nM and 2.5 nM, the TGI [41] was 439 nM and the GI50 [42] was 2.41 nM and < 2.5 nM. The TGI [42] was 6.6 nM and < 2.5 nM, the GI50 [43] was 6.49 nM and 3.89 nM and the TGI [43] was 19.8 nM and 7.63 nM. For the same molecule, the GI50 [44] was 3.65 nM and 2.5 nM, the TGI [44] was 17.2 nM and 7.68 nM and the GI50 [45] was 5.63 nM and 2.5 nM. For the same molecule, the TGI [45] was 517 nM and 106 nM, the GI50 [46] was 3.01 nM and 2.5 nM and the TGI [46] was 8.71 nM and 4.81 nM. For the same molecule, the GI50 [47] was 3.88 nM and 2.5 nM, the TGI [47] was 41.1 nM and 11.7 nM and the GI50 [48] was 3.22 nM and 2.5 nM. The GI50 [49] was 2.29 nM, the TGI [49] was 4.54 nM and the GI50 [50] was 3.33 nM and 2.5 nM. For the same molecule, the TGI [50] was 17.9 nM and 3.85 nM, the GI50 [51] was 4.12 nM and 2.5 nM and the GI50 [52] was 3.68 nM and 2.5 nM. For the same molecule, the GI50 [53] was 4.28 nM and 2.5 nM, the TGI [53] was 102 nM and 14.8 nM and the GI50 [54] was 5.45 nM and 2.5 nM. For the same molecule, the TGI [54] was 64.9 nM and 9.2 nM, the GI50 [55] was 54.8 nM and 17.4 nM and the TGI [55] was 669 nM and 148 nM. The GI50 [56] was 3.19 nM and 2.5 nM, the GI50 [57] was 2.44 nM and < 2.5 nM and the TGI [57] was 5.8 nM and < 2.5 nM. The GI50 [58] was 13.6 nM and 2.5 nM and the TGI [58] was 4700 nM.
